Experimental data: US4582639A, “Antitumor antibiotic compound” (priority 1984, dated 1986)
≈ marks a conversion by molar mass, not a printed value. Bridge positions count the residues as written; N and C are the ends. Square brackets hold non-standard residues; d marks the D form. Peptide text beside a SMILES is read from it. I, II: the chains in the order shown. * marks the point of attachment. Quinaldoyl(3-OH) = O=C(c1nc2ccccc2cc1O)*; NMeV = CN[CH](C(=O)O)C(C)C; Pip = O=C(O)[CH]1CCCCN1; Sar = CNCC(=O)O

Key:
[1] = system: S. aureus (echinomycin resistant) A9628; assay: microbe, parasite or virus in culture; type: cell-based; settings: Staphylococcus aureus, read-out: Minimum Inhibitory Concentration (MIC)
Description: The antibacterial activities of sandramycin were determined by a serial two-fold agar dilution method.

[2] = system: Strep. faecalis A9611; assay: serial two-fold agar dilution, MIC; type: cell-based, Streptococcus faecalis; settings: Enterococcus faecalis, read-out: Minimum Inhibitory Concentration (MIC)
Description: (§1) The antibacterial activities of sandramycin were determined by a serial two-fold agar dilution method. The results are shown in Table 5 in comparison with the activities of luzopeptin A and echinomycin.

[3] = system: B. subtilis (Rec. -) A22509-2-2; assay: serial two-fold agar dilution, MIC; type: cell-based; settings: Bacillus subtilis; B. subtilis (Rec. -) A22509-2-2, agar dilution; read-out: Minimum Inhibitory Concentration (MIC)
Description: as §1

[4] = system: B. subtilis (Rec. +) A22508-2; assay: serial two-fold agar dilution, MIC; type: cell-based; settings: Bacillus subtilis; B. subtilis (Rec. +) A22508-2, agar dilution; read-out: Minimum Inhibitory Concentration (MIC)
Description: as §1

[5] = system: E. coli (actinomycin sensitive) A21780 (AS-19); assay: serial two-fold agar dilution, MIC; type: cell-based; settings: Escherichia coli, read-out: Minimum Inhibitory Concentration (MIC)
Description: as §1

[6] = system: E. coli A15119; assay: serial two-fold agar dilution, MIC; type: cell-based; settings: Escherichia coli, read-out: Minimum Inhibitory Concentration (MIC)
Description: as §1

[7] = system: P-388 leukemia; assay: transplantable mouse tumor P-388 leukemia; type: in vivo, mouse (CDF1 female mice)
Description: The methodology used generally followed the protocols of the National Cancer Institute [Cancer Chemotherapy Rep. Part 3, 3, 1-103 (1972)]. The essential experimental details are given at the bottom of Table 6. Two different dose regimens were tested: single dose on day 1 and daily for 5 days. With both schedules, the optimum dose appears to be about 0.2 mg/kg/injection.
Tumor inoculum: 10^6 ascites cells implanted i.p.
Evaluation: MST=median survival time
Effect: % T/C≥(MST treated/MST control)×100
Criteria: % T/C=125 considered significant antitumor activity
AWC: average weight change (treated-control) in grams (on day 4)

[8] = system: gram-positive organisms such as Bacillus subtilis and Staphylococcus aureus as well as Streptococcus faecalis; assay: serial two-fold agar dilution, antibacterial activity in words; type: cell-based
Description: as §1

SMILES: CS[C@H]1SC[C@H]2C(=O)N(C)[C@@H](C(C)C)C(=O)OC[C@@H](NC(=O)c3cnc4ccccc4n3)C(=O)N[C@@H](C)C(=O)N(C)[C@@H]1C(=O)N(C)[C@@H](C(C)C)C(=O)OC[C@@H](NC(=O)c1cnc3ccccc3n1)C(=O)N[C@@H](C)C(=O)N2C [Echinomycin]
- MIC [1]: 0.78 µg/mL (≈ 0.708 µM)
- MIC [2]: 0.012 µg/mL (≈ 0.0109 µM)
- MIC [3]: < 0.003 µg/mL
- MIC [4]: 0.049 µg/mL (≈ 0.0445 µM)
- MIC [5]: 6.25 µg/mL (≈ 5.68 µM)
- MIC [6]: 12.5 µg/mL (≈ 11.4 µM)

SMILES: COc1ccc2nc(C(=O)N[C@@H]3COC(=O)[C@H](C(C)(C)O)N(C)C(=O)CN(C)C(=O)CNC(=O)C4C(OC(C)=O)CC=NN4C(=O)[C@H](NC(=O)c4nc5ccc(OC)cc5cc4O)COC(=O)[C@H](C(C)(C)O)N(C)C(=O)CN(C)C(=O)CNC(=O)C4C(OC(C)=O)CC=NN4C3=O)c(O)cc2c1 (some centres unmarked) [Luzopeptin A]
- MIC [1]: 0.098 µg/mL (≈ 0.0687 µM)
- MIC [2]: 0.195 µg/mL (≈ 0.137 µM)
- MIC [3]: 0.049 µg/mL (≈ 0.0343 µM)
- MIC [4]: 0.195 µg/mL (≈ 0.137 µM)
- MIC [5]: 12.5 µg/mL (≈ 8.76 µM)
- MIC [6]: 12.5 µg/mL (≈ 8.76 µM)

SMILES: CC(C)C1C(=O)OCC(NC(=O)c2nc3ccccc3cc2O)C(=O)N2CCCCC2C(=O)NCC(=O)N(C)CC(=O)N(C)C(C(C)C)C(=O)OCC(NC(=O)c2nc3ccccc3cc2O)C(=O)N2CCCCC2C(=O)NCC(=O)N(C)CC(=O)N1C (centres unmarked) [Sandramycin] (I: {Quinaldoyl(3-OH)}-S[Pip]G[Sar][NMeV] / II: {Quinaldoyl(3-OH)}-S[Pip]G[Sar][NMeV]; ester I:1-II:C, I:C-II:1; configuration not given here)
- optimum dose ([7]; IP, both schedules (single dose on day 1 and daily for 5 days)): about 0.2 mg/kg/injection
- AWC Day 4 ([7]; d. 1, IP, 0.025 mg/kg/inj.): -0.2 gm
- MST ([7]; d. 1, IP, 0.025 mg/kg/inj.): 9.5 days
- MST % T/C ([7]; d. 1, IP, 0.025 mg/kg/inj.): 106%
- Survivors Day 5 ([7]; d. 1, IP, 0.025 mg/kg/inj.): 6/6
- AWC Day 4 ([7]; d. 1, IP, 0.05 mg/kg/inj.): -0.6 gm
- MST ([7]; d. 1, IP, 0.05 mg/kg/inj.): 10.0 days
- MST % T/C ([7]; d. 1, IP, 0.05 mg/kg/inj.): 111%
- Survivors Day 5 ([7]; d. 1, IP, 0.05 mg/kg/inj.): 6/6
- AWC Day 4 ([7]; d. 1, IP, 0.1 mg/kg/inj.): -0.9 gm
- MST ([7]; d. 1, IP, 0.1 mg/kg/inj.): 11.0 days
- MST % T/C ([7]; d. 1, IP, 0.1 mg/kg/inj.): 122%
- Survivors Day 5 ([7]; d. 1, IP, 0.1 mg/kg/inj.): 6/6
- AWC Day 4 ([7]; d. 1, IP, 0.2 mg/kg/inj.): -1.4 gm
- MST ([7]; d. 1, IP, 0.2 mg/kg/inj.): 14.5 days
- MST % T/C ([7]; d. 1, IP, 0.2 mg/kg/inj.): 161%
- Survivors Day 5 ([7]; d. 1, IP, 0.2 mg/kg/inj.): 6/6
- AWC Day 4 ([7]; d. 1, IP, 0.4 mg/kg/inj.): -0.7 gm
- MST ([7]; d. 1, IP, 0.4 mg/kg/inj.): 11.0 days
- MST % T/C ([7]; d. 1, IP, 0.4 mg/kg/inj.): 122%
- Survivors Day 5 ([7]; d. 1, IP, 0.4 mg/kg/inj.): 6/6
- AWC Day 4 ([7]; d. 1, IP, 0.8 mg/kg/inj.): -1.6 gm
- MST ([7]; d. 1, IP, 0.8 mg/kg/inj.): 10.0 days
- MST % T/C ([7]; d. 1, IP, 0.8 mg/kg/inj.): 111%
- Survivors Day 5 ([7]; d. 1, IP, 0.8 mg/kg/inj.): 6/6
- AWC Day 4 ([7]; d. 1, IP, 1.6 mg/kg/inj.): -1.3 gm
- MST ([7]; d. 1, IP, 1.6 mg/kg/inj.): 11.5 days
- MST % T/C ([7]; d. 1, IP, 1.6 mg/kg/inj.): 128%
- Survivors Day 5 ([7]; d. 1, IP, 1.6 mg/kg/inj.): 6/6
- AWC Day 4 ([7]; d. 1, IP, 3.2 mg/kg/inj.): -2.8 gm
- MST ([7]; d. 1, IP, 3.2 mg/kg/inj.): Toxic
- MST % T/C ([7]; d. 1, IP, 3.2 mg/kg/inj.): Toxic
- Survivors Day 5 ([7]; d. 1, IP, 3.2 mg/kg/inj.): 0/6
- AWC Day 4 ([7]; d. 1→5, IP, 0.0125 mg/kg/inj.): -0.9 gm
- MST ([7]; d. 1→5, IP, 0.0125 mg/kg/inj.): 10.5 days
- MST % T/C ([7]; d. 1→5, IP, 0.0125 mg/kg/inj.): 117%
- AWC Day 4 ([7]; d. 1→5, IP, 0.025 mg/kg/inj.): -1.4 gm
- MST ([7]; d. 1→5, IP, 0.025 mg/kg/inj.): 10.0 days
- MST % T/C ([7]; d. 1→5, IP, 0.025 mg/kg/inj.): 111%
- Survivors Day 5 ([7]; d. 1→5, IP, 0.025 mg/kg/inj.): 5/5
- AWC Day 4 ([7]; d. 1→5, IP, 0.05 mg/kg/inj.): -1.8 gm
- MST ([7]; d. 1→5, IP, 0.05 mg/kg/inj.): 8.5 days
- MST % T/C ([7]; d. 1→5, IP, 0.05 mg/kg/inj.): 94%
- Survivors Day 5 ([7]; d. 1→5, IP, 0.05 mg/kg/inj.): 6/6
- AWC Day 4 ([7]; d. 1→5, IP, 0.1 mg/kg/inj.): -0.8 gm
- MST ([7]; d. 1→5, IP, 0.1 mg/kg/inj.): 11.5 days
- MST % T/C ([7]; d. 1→5, IP, 0.1 mg/kg/inj.): 128%
- Survivors Day 5 ([7]; d. 1→5, IP, 0.1 mg/kg/inj.): 6/6
- AWC Day 4 ([7]; d. 1→5, IP, 0.2 mg/kg/inj.): -1.7 gm
- MST ([7]; d. 1→5, IP, 0.2 mg/kg/inj.): 12.0 days
- MST % T/C ([7]; d. 1→5, IP, 0.2 mg/kg/inj.): 133%
- Survivors Day 5 ([7]; d. 1→5, IP, 0.2 mg/kg/inj.): 5/6
- AWC Day 4 ([7]; d. 1→5, IP, 0.4 mg/kg/inj.): -1.3 gm
- MST ([7]; d. 1→5, IP, 0.4 mg/kg/inj.): 11.0 days
- MST % T/C ([7]; d. 1→5, IP, 0.4 mg/kg/inj.): 122%
- Survivors Day 5 ([7]; d. 1→5, IP, 0.4 mg/kg/inj.): 6/6
- AWC Day 4 ([7]; d. 1→5, IP, 0.8 mg/kg/inj.): -1.4 gm
- MST ([7]; d. 1→5, IP, 0.8 mg/kg/inj.): 6.0 days
- MST % T/C ([7]; d. 1→5, IP, 0.8 mg/kg/inj.): 67%
- Survivors Day 5 ([7]; d. 1→5, IP, 0.8 mg/kg/inj.): 5/6
- AWC Day 4 ([7]; d. 1→5, IP, 1.6 mg/kg/inj.): -1.7 gm
- MST ([7]; d. 1→5, IP, 1.6 mg/kg/inj.): Toxic
- MST % T/C ([7]; d. 1→5, IP, 1.6 mg/kg/inj.): Toxic
- Survivors Day 5 ([7]; d. 1→5, IP, 1.6 mg/kg/inj.): 2/6
- MIC [1]: 0.098 µg/mL (≈ 0.0802 µM)
- antibacterial activity [8]: strongly inhibitory
- MIC [2]: 0.024 µg/mL (≈ 0.0197 µM)
- MIC [3]: 0.012 µg/mL (≈ 0.00983 µM)
- MIC [4]: 0.024 µg/mL (≈ 0.0197 µM)
- MIC [5]: 12.5 µg/mL (≈ 10.2 µM)
- MIC [6]: 12.5 µg/mL (≈ 10.2 µM)
